Measurements as given in US11878975B2, “Substituted indole compounds useful as TLR inhibitors” (BRISTOL-MYERS SQUIBB COMPANY, priority 2017, dated 2024).

Tests used:
Assay type in all cases: cell-based
human TLR7 = molecular target: T1, human TLR7 (Homo sapiens, UniProt Q9NYK1); assay: TLR7 inhibition reporter assay (HEK-Blue cells, SEAP reporter, gardiquimod stimulation); details: HEK-Blue cells overexpressing human TLR7, SEAP reporter, gardiquimod 7.5 μM
T1 construct: host or cells: HEK-Blue cells
T1 sequence (Q9NYK1 27-1049): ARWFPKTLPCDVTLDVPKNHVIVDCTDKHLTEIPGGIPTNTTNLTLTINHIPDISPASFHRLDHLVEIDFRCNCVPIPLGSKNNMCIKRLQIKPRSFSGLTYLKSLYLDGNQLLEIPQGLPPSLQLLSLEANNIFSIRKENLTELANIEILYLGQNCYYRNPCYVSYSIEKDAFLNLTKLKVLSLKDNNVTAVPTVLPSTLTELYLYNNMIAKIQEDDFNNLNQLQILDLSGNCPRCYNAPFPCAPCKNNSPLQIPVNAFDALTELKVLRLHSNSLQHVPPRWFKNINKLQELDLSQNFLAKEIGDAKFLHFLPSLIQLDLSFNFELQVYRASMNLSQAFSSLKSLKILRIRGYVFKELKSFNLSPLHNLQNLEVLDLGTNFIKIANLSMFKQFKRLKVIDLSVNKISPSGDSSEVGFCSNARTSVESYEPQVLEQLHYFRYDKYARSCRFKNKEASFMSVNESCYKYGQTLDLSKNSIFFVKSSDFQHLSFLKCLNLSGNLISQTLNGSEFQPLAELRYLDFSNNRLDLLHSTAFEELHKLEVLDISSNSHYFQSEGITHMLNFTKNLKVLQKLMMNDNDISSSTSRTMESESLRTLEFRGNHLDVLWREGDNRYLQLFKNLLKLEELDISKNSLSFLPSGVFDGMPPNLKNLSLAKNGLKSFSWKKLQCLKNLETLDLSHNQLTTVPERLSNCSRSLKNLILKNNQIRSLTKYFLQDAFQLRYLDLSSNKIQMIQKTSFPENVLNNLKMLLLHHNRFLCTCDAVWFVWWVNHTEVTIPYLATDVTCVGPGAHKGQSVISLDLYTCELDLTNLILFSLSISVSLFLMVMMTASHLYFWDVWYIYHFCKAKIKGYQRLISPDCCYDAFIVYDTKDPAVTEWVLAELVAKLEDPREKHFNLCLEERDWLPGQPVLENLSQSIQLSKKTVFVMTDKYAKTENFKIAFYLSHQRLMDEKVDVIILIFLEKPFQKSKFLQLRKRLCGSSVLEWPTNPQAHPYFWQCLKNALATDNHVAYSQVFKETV
Procedure, shortened: (§1)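 SEAP readout after 22 h agonist exposure at 37 °C; final agonist levels were 7.5 μM gardiquimod (TLR7), 15.9 μM R848 (TLR8) and 5 nM ODN2006 (TLR9). Inhibitors, spanning 0.05 nM to 50 μM final, were applied 30 min beforehand.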

human TLR8 = molecular target: T2, human TLR8 (Homo sapiens, UniProt Q9NR97); assay: TLR8 inhibition reporter assay (HEK-Blue cells, SEAP reporter, R848 stimulation); details: HEK-Blue cells overexpressing human TLR8, SEAP reporter, R848 15.9 μM
T2 construct: host or cells: HEK-Blue cells
T2 sequence (Q9NR97 27-1041): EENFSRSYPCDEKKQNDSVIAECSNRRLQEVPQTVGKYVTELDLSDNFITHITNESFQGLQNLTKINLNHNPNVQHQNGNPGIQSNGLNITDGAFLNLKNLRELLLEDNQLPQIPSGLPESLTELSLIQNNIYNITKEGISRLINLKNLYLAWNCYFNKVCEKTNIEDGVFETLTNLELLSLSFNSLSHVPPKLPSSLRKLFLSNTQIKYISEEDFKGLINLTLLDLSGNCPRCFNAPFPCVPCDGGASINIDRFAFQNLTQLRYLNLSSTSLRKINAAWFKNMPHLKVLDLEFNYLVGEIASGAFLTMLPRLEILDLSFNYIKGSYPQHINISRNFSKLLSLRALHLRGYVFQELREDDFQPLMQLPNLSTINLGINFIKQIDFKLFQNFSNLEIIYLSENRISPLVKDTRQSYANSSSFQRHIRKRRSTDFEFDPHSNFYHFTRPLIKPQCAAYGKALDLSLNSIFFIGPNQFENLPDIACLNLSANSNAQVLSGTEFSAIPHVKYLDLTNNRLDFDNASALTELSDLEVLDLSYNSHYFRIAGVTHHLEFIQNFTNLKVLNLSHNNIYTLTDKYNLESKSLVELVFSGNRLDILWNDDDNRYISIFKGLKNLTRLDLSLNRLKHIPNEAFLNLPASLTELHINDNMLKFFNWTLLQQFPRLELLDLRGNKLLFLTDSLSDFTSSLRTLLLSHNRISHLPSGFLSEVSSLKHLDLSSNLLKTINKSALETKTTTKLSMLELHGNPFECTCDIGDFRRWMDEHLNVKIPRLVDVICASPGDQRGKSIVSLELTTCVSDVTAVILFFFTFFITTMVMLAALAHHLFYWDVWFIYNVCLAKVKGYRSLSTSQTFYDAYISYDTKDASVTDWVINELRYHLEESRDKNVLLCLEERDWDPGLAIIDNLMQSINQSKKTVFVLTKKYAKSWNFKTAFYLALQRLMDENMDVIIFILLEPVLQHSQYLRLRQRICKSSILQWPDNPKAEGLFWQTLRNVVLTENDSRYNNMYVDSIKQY
Procedure, shortened: as §1

human TLR9 = molecular target: T3, human TLR9 (Homo sapiens, UniProt Q9NR96); assay: TLR9 inhibition reporter assay (HEK-Blue cells, SEAP reporter, ODN2006 stimulation); details: HEK-Blue cells overexpressing human TLR9, SEAP reporter, ODN2006 5 nM
T3 construct: host or cells: HEK-Blue cells
T3 sequence (Q9NR96 26-1032): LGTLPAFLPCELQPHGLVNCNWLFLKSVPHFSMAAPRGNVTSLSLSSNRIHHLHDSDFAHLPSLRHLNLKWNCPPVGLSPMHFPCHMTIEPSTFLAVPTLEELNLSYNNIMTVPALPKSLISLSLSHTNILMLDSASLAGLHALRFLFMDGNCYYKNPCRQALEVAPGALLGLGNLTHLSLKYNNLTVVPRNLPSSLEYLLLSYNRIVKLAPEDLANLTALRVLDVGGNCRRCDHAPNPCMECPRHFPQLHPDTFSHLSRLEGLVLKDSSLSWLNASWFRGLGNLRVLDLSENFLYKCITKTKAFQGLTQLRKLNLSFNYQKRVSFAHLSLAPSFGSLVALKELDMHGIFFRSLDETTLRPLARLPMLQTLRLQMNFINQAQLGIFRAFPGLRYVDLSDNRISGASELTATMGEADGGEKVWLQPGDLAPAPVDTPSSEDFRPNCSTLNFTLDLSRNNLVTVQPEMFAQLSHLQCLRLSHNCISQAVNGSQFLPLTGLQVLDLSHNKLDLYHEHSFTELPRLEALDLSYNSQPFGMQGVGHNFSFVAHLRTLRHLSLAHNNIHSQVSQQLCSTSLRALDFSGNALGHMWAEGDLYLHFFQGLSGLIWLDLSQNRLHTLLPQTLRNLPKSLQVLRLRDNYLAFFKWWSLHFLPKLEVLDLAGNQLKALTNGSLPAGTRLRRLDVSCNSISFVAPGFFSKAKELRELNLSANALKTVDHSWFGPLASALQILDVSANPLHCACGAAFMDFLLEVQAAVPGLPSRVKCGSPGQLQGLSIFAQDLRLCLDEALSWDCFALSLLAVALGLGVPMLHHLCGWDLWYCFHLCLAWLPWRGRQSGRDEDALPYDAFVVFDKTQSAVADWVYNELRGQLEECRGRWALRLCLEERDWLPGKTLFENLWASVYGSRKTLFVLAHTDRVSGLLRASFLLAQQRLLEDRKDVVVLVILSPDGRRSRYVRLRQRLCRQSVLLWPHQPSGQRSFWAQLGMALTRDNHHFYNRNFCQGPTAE
Procedure, shortened: as §1

SMILES | IC50 (human TLR7) [nM] | IC50 (human TLR8) [nM] | IC50 (human TLR9) [nM]
Cc1cc(-c2[nH]c3ccc(C4CCC(NC(=O)CN(C)C)CC4)cc3c2C(C)C)cc(C)n1 (stereo not drawn) [Example 120] | 4 | 21 | 323
Cc1cc(-c2[nH]c3ccc(C4CCC(NC(=O)CN(C)C)CC4)cc3c2C(C)C)cn2ncnc12 (stereo not drawn) [Example 121] | 0.41 | 2.6 | 7150
COc1cc(-c2[nH]c3ccc(C4CCC(NC(=O)CN(C)C)CC4)cc3c2C(C)C)cn2ncnc12 (stereo not drawn) [Example 122] | 0.24 | 2.4 | 8700
Cc1c(-c2[nH]c3ccc(C4CCC(NC(=O)CN(C)C)CC4)cc3c2C(C)C)cn2ncnc2c1C (stereo not drawn) [Example 123] | 0.52 | 1 | > 50000
Cc1c(-c2[nH]c3ccc(C4CCC(NC(=O)CN(C)C)CC4)cc3c2C(C)C)cn2ncnc2c1C (stereo not drawn) [Example 124] | 9 | 12 | 8180
CCN(CC)CC(=O)NC1CCC(c2ccc3[nH]c(-c4cn5ncnc5c(C)c4C)c(C(C)C)c3c2)CC1 (stereo not drawn) [Example 125] | 11 | 10 | 6980
CCN(CC)CC(=O)NC1CCC(c2ccc3[nH]c(-c4cn5ncnc5c(C)c4C)c(C(C)C)c3c2)CC1 (stereo not drawn) [Example 126] | 0.51 | 2.3 | > 50000
COc1cc(-c2[nH]c3ccc(C4CCC(NC(=O)CN(C)C)CC4)cc3c2C(C)C)cn2ncnc12 (stereo not drawn) [Example 127] | 2 | 3.2 | 3160
CNCC(=O)NC1CCC(c2ccc3[nH]c(-c4cn5ncnc5c(C)c4C)c(C(C)C)c3c2)CC1 (stereo not drawn) [Example 128, N-(4-(2-(7,8-dimethyl-[1,2,4]triazolo[1,5-a]pyridin-6-yl)-3-isopropyl-1H-indol-5-yl)cyclohexyl)-2-(methylamino)acetamide] | 0.37 | 1.4 | 2250
CN[C@@H](C)C(=O)NC1CCC(c2ccc3[nH]c(-c4cn5ncnc5c(C)c4C)c(C(C)C)c3c2)CC1 (stereo partly drawn) [Example 131] | 0.45 | 1 | 2990
CCN(C)CC(=O)NC1CCC(c2ccc3[nH]c(-c4cc(OC)c5ncnn5c4)c(C(C)C)c3c2)CC1 (stereo not drawn) [Example 132, 2-(ethyl(methyl)amino)-N-(4-(3-isopropyl-2-(8-methoxy-[1,2,4]triazole [1,5-a]pyridin-6-yl)-1H-indol-5-yl)cyclohexyl)acetamide] | 0.44 | 1.5 | 6040
COc1cc(-c2[nH]c3ccc(C4CCC(NC(=O)CN5CCCC5)CC4)cc3c2C(C)C)cn2ncnc12 (stereo not drawn) [Example 133] | 0.28 | 0.75 | 2020
COc1cc(-c2[nH]c3ccc(C4CCC(NC(=O)CNC5(C)COC5)CC4)cc3c2C(C)C)cn2ncnc12 (stereo not drawn) [Example 135] | 2 | 12 | 43800
COc1cc(-c2[nH]c3ccc(C4CCC(NC(=O)CNC5COC5)CC4)cc3c2C(C)C)cn2ncnc12 (stereo not drawn) [Example 137] | 2 | 4.9 | 26600
COc1cc(-c2[nH]c3ccc(C4CCC(NC(=O)CN5CC6(COC6)C5)CC4)cc3c2C(C)C)cn2ncnc12 (stereo not drawn) [Example 138] | 0.41 | 2.5 | 4440
COc1cc(-c2[nH]c3ccc(C4CCC(NC(=O)CNC5COC5)CC4)cc3c2C(C)C)cn2ncnc12 (stereo not drawn) [Example 139] | 18 | 40 | > 50000
COc1cc(-c2[nH]c3ccc(C4CCC(NC(=O)CNCC(C)(C)O)CC4)cc3c2C(C)C)cn2ncnc12 (stereo not drawn) [Example 140] | 0.7 | 5.6 | 14200
COc1cc(-c2[nH]c3ccc(C4CCC(NC(=O)CN5CCOCC5)CC4)cc3c2C(C)C)cn2ncnc12 (stereo not drawn) [Example 141] | 2 | 18 | 4320
COc1cc(-c2[nH]c3ccc(C4CCC(NC(=O)CN5CCOCC5)CC4)cc3c2C(C)C)cn2ncnc12 (stereo not drawn) [Example 142] | 2 | 14 | 4410
COc1cc(-c2[nH]c3ccc(C4CCC(NC(=O)CN(C)C5CC5)CC4)cc3c2C(C)C)cn2ncnc12 (stereo not drawn) [Example 143] | 2 | 8 | 27700
COc1cc(-c2[nH]c3ccc(C4CCC(NC(=O)CN5CCS(=O)(=O)CC5)CC4)cc3c2C(C)C)cn2ncnc12 (stereo not drawn) [Example 144] | 3 | 9.7 | 33300
COc1cc(-c2[nH]c3ccc(C4CCC(N(C)C(=O)CN(C)C)CC4)cc3c2C(C)C)cn2ncnc12 (stereo not drawn) [Example 147, 2-(dimethylamino)-N-(4-(3-isopropyl-2-(8-methoxy-[1,2,4]triazolo[1,5-a]pyridin-6-yl)-1H-indol-5-yl)cyclohexyl)-N-methylacetamide] | 0.43 | 5.1 | 1490
Cc1cc(-c2[nH]c3ccc(C4CCC(N(C)C(=O)CN(C)C)CC4)cc3c2C(C)C)cn2ncnc12 (stereo not drawn) [Example 148] | 1 | 7.7 | 2440
